Laboratory results reported in ChEMBL document CHEMBL1201862, “PubChem BioAssay data set” (2004).
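The compound was tested at five concentrations on cells cultured in 96-well plates, with a 48-hour exposure period. GI50 marks 50% less growth.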 Calls of active or inactive are those of the source. No stated cut-off is given here; in the data, active = GI50 up to about 1.1 µM and inactive = higher.

Tests used:
Assay in all cases: NCI-60 cell line screen, 48 h
786-0 = test system: 786-0
A498 = test system: A498
A549 = test system: A549
ACHN = test system: ACHN
BT-549 = test system: BT-549
CAKI-1 = test system: CAKI-1
COLO 205 = test system: COLO 205
DU-145 = test system: DU-145
EKVX = test system: EKVX
HCT-116 = test system: HCT-116
HCT-15 = test system: HCT-15
HL-60 = test system: HL-60
HOP-62 = test system: HOP-62
HOP-92 = test system: HOP-92
HT-29 = test system: HT-29
Hs-578T = test system: Hs-578T
IGROV-1 = test system: IGROV-1
K562 = test system: K562
KM12 = test system: KM12
LOX IMVI = test system: LOX IMVI
M14 = test system: M14
MCF7 = test system: MCF7
MDA-MB-231 = test system: MDA-MB-231
MDA-MB-435 = test system: MDA-MB-435
MDA-N = test system: MDA-N
MOLT-4 = test system: MOLT-4
Malme-3M = test system: Malme-3M
NCI-H226 = test system: NCI-H226
NCI-H23 = test system: NCI-H23
NCI-H460 = test system: NCI-H460
NCI-H522 = test system: NCI-H522
NCI/ADR-RES = test system: NCI/ADR-RES
OVCAR-3 = test system: OVCAR-3
OVCAR-4 = test system: OVCAR-4
OVCAR-5 = test system: OVCAR-5
OVCAR-8 = test system: OVCAR-8
PC-3 = test system: PC-3
RPMI-8226 = test system: RPMI-8226
SF-268 = test system: SF-268
SF-295 = test system: SF-295
SF-539 = test system: SF-539
SK-MEL-28 = test system: SK-MEL-28
SK-MEL-2 = test system: SK-MEL-2
SK-MEL-5 = test system: SK-MEL-5
SK-OV-3 = test system: SK-OV-3
SN12C = test system: SN12C
SNB-19 = test system: SNB-19
SR = test system: SR
SW-620 = test system: SW-620
T47D = test system: T47D
TK-10 = test system: TK-10
U-251 = test system: U-251
UACC-257 = test system: UACC-257
UACC-62 = test system: UACC-62
UO-31 = test system: UO-31

## CC(CS(=O)(=O)Cc1ccccc1)C(N)=O (stereo not given)
786-0
  GI50: > 100 µM (inactive)
A498
  GI50: > 100 µM (inactive)
A549
  GI50: > 100 µM (inactive)
ACHN
  GI50: > 100 µM (inactive)
BT-549
  GI50: > 100 µM (inactive)
CAKI-1
  GI50: > 100 µM (inactive)
COLO 205
  GI50: > 100 µM (inactive)
DU-145
  GI50: > 100 µM (inactive)
EKVX
  GI50: > 100 µM (inactive)
HCT-116
  GI50: > 100 µM (inactive)
HCT-15
  GI50: > 100 µM
HL-60
  GI50: > 100 µM (inactive)
HOP-62
  GI50: > 100 µM (inactive)
HOP-92
  GI50: > 100 µM (inactive)
HT-29
  GI50: > 100 µM (inactive)
Hs-578T
  GI50: > 100 µM (inactive)
IGROV-1
  GI50: > 100 µM (inactive)
K562
  GI50: > 100 µM (inactive)
KM12
  GI50: > 100 µM (inactive)
LOX IMVI
  GI50: > 100 µM (inactive)
M14
  GI50: > 100 µM (inactive)
MCF7
  GI50: > 100 µM (inactive)
MDA-MB-231
  GI50: > 100 µM (inactive)
MDA-MB-435
  GI50: > 100 µM (inactive)
MDA-N
  GI50: > 100 µM (inactive)
MOLT-4
  GI50: > 100 µM (inactive)
Malme-3M
  GI50: > 100 µM (inactive)
NCI-H226
  GI50: > 100 µM (inactive)
NCI-H23
  GI50: > 100 µM (inactive)
NCI-H460
  GI50: > 100 µM (inactive)
NCI-H522
  GI50: > 100 µM (inactive)
NCI/ADR-RES
  GI50: > 100 µM (inactive)
OVCAR-3
  GI50: > 100 µM (inactive)
OVCAR-4
  GI50: > 100 µM (inactive)
OVCAR-5
  GI50: > 100 µM (inactive)
OVCAR-8
  GI50: > 100 µM (inactive)
PC-3
  GI50: > 100 µM (inactive)
RPMI-8226
  GI50: > 100 µM (inactive)
SF-268
  GI50: > 100 µM (inactive)
SF-295
  GI50: > 100 µM (inactive)
SF-539
  GI50: > 100 µM (inactive)
SK-MEL-28
  GI50: > 100 µM (inactive)
SK-MEL-2
  GI50: > 100 µM (inactive)
SK-MEL-5
  GI50: > 100 µM (inactive)
SK-OV-3
  GI50: > 100 µM (inactive)
SN12C
  GI50: > 100 µM (inactive)
SNB-19
  GI50: > 100 µM (inactive)
SR
  GI50: > 100 µM (inactive)
SW-620
  GI50: > 100 µM (inactive)
T47D
  GI50: > 100 µM (inactive)
TK-10
  GI50: > 100 µM (inactive)
U-251
  GI50: > 100 µM (inactive)
UACC-257
  GI50: > 100 µM (inactive)
UACC-62
  GI50: > 100 µM (inactive)
UO-31
  GI50: > 100 µM (inactive)
